In patent US11371016B2, “Method for producing retinal tissue” (SUMITOMO PHARMA CO., LTD., priority 2016, dated 2022):

Key:
[1] = system: human iPS cells (1231A3 strain); experiment: Differentiation of feeder-free cultured human iPS cells into retinal tissue; immunostaining of cell aggregates for Rx and Chx10; type: cell-based; conditions: day 17; for proportion of Rx positive cells in the total cells: BMP4 1.5 nM from day 3
[2] = system: human iPS cells (1231A3 strain); experiment: as above; type: cell-based; conditions: IWR-1e 3 μM in step 2 and step 3, BMP4 1.5 nM from day 3
Protocol: Human iPS cells (1231A3 strain, obtained from Kyoto University) were cultured under feeder free according to the method described in “Scientific Reports, 4, 3594 (2014)”. As a feeder-free medium, StemFit (registered trade mark) medium (AK03N, manufactured by Ajinomoto Co., Inc.) was used, and as a feeder-free scaffold, Laminin 511-E8 (manufactured by Nippi, Inc.) was used. As a specific maintenance culture operation, subconfluent human iPS cells (1231A3 strain) were first washed with PBS, and dispersed into single cells by using TrypLE Select (manufactured by Life Technologies). Thereafter, the aforementioned human iPS cells dispersed into single cells were seeded in a plastic culture dish coated with Laminin 511-E8, and cultured under feeder-free conditions in StemFit (registered trade mark) medium in the presence of Y27632 (ROCK inhibiting substance, 10 μM). When a 6-well plate (manufactured by Iwaki, for cell culture, culture area 9.4 cm^2) was used as the aforementioned plastic culture dish, the number of plated cells for the aforementioned human iPS cells dispersed into single cells was adjusted to 1.0×10^4. One day after seeding, the entire amount of the medium was changed with StemFit (registered trade mark) medium free of Y27632. Thereafter, once in 1-2 days, the entire amount of the medium was changed with StemFit (registered trade mark) medium free of Y27632. Thereafter, the cells were cultured until 6 days after seeding when they became subconfluent (60% of culture area is covered with cells). As a specific example of step 1 (Precondition) of the present production method, the following operation was performed. Subconfluent human iPS cells (1231A3 strain) were first washed with PBS, and dispersed into single cells by using TrypLE Select (manufactured by Life Technologies). Thereafter, the aforementioned human iPS cells dispersed into single cells were seeded in a plastic culture dish (manufactured by Iwaki) coated with Laminin 511-E8, and cultured under feeder-free conditions in StemFit (registered trade mark) medium in the presence of Y27632 (ROCK inhibiting substance, 10 μM). When a 6-well plate (manufactured by Iwaki, culture area 9.4 cm^2) was used as the aforementioned plastic culture dish, the number of plated cells for the aforementioned human iPS cells dispersed into single cells was adjusted to 1.0×10^4. When a 60 mm dish (manufactured by Iwaki, for cell culture, culture area 21 cm^2) was used as the aforementioned plastic culture dish, the number of plated cells for the aforementioned human iPS cells dispersed into single cells was adjusted to 2.0×10^4. One day after seeding, the entire amount of the medium was changed with StemFit (registered trade mark) medium free of Y27632. […]

[3] = Precondition SB431542 5 μM + SAG 300 nM in step 1, day 17

| SMILES | proportion of Rx positive cells in the total cells ([1]; Example 2 Condition 3: Precondition SAG 300 nM in step 1, IWR-1e 3 μM in step 2 and step 3) | Chx10 status of Rx positive cells (serial sections) ([1]; Example 2 Condition 3: Precondition SAG 300 nM, IWR-1e 3 μM in step 2 and step 3) | proportion of Rx positive cells in the total cells ([1]; Example 2 Condition 5: Precondition SAG 300 nM in step 1, SAG 30 nM in step 2, IWR-1e 3 μM in step 2 and step 3) | Chx10 status of Rx positive cells (serial sections) ([1]; Example 2 Condition 5: Precondition SAG 300 nM, SAG 30 nM in step 2, IWR-1e 3 μM in step 2 and step 3) | Chx10 positive (strong positive) cells [2, 3] | proportion of Rx positive cells in the total cells [2, 3] | Chx10 positiveness in the cell aggregate ([2]; no Precondition in step 1, day 17) | proportion of Rx positive cells in the total cells ([2]; no Precondition in step 1, day 17 of suspension culture) | proportion of Rx positive cells in the total cells ([1]; Example 2 Condition 2: Precondition SAG 300 nM one day in step 1, no Wnt inhibiting substance, no SAG in step 2) | Chx10 status of Rx positive cells (serial sections) ([1]; Example 2 Condition 2: Precondition SAG 300 nM, no IWR-1e, no SAG in step 2) | proportion of Rx positive cells in the total cells ([1]; Example 2 Condition 4: Precondition SAG 300 nM in step 1, SAG 30 nM in step 2, no IWR-1e) | Chx10 status of Rx positive cells (serial sections) ([1]; Example 2 Condition 4: Precondition SAG 300 nM, SAG 30 nM in step 2, no IWR-1e) | neural tissue formation ([1]; Example 2 Conditions 2-5: Precondition treatment with SAG 300 nM in step 1, versus Condition 1 without Precondition (not formed)) |
| --- | --- | --- | --- | --- | --- | --- | --- | --- | --- | --- | --- | --- | --- |
| O=C(Nc1cccc2cccnc12)c1ccc(N2C(=O)[C@@H]3[C@H](C2=O)[C@@H]2C=C[C@H]3C2)cc1 [IWR-1e, 4-[(3aR,4S,7R,7aS)-1,3,3a,4,7,7a-hexahydro-1,3-dioxo-4,7-methano-2H-isoindol-2-yl]-N-8-quinolinyl-benzamide] | about 90% | Chx10 co-positive | about 90% | Chx10 co-positive | about 60% | about 60% | weak Chx10 positiveness | about 40% | – | – | – | – | – |
| CNC1CCC(N(Cc2cccc(-c3ccncc3)c2)C(=O)c2sc3ccccc3c2Cl)CC1 (stereo not shown) [SAG] | – | – | – | – | – | – | – | – | about 40% | Chx10 co-positive | about 60% | Chx10 co-positive | a neural tissue was formed |
